Read-outs that look alike come from different tables or passages of the source.
Legend:
[1] = acid dissociation constant (pKa) in water
From the text: As used herein, pKa refers to an acid dissociation constant, i.e., an acid dissociation constant in water or an acid dissociation constant in acetonitrile.
The acid dissociation constant in water can be measured, for example, with reference to the method described in J. Chem. Res., Synop. […] Specifically, it can be measured by a combination of a spectrometer with potentiometry.

TG/DTA thermal analysis = type: physicochemical; settings: for 10% weight loss temperature: TG; for 10% weight loss temperature / Exothermic peak temperature in DTA measurement: air, 30° C. to 600° C., heating rate 10° C./min; for nature of the weight loss in TG/DTA: exothermic suggests decomposition reaction
Method: The measurement is performed in a temperature range of 30° C. to 600° C. at a heating rate of 10° C./min while introducing air at a flow rate of 200 mL/min using EXSTAR 6000 (manufactured by Seiko Instruments Inc.). As a gas chromatography mass spectrometer, 6890/5975 MSD (manufactured by Agilent Technologies, Inc.) was used. The following measurement conditions are used: column: DB-1 (15 m, diameter: 0.25 mm, membrane thickness: 0.1 μm); injection temperature: 280° C.; column temperature: initial temperature of 40° C., hold for 5 min, heated to 340° C. at the heating rate of 20° C./min, and hold at the same temperature; mass spectrometric unit: 5975MSD; MS detection mode: EI^+; quadrupole temperature: 150° C.; ion source temperature: 300° C.; mass scanning range: m/z 33-700; and calibration: PFTBA.
Ionic liquids obtained from Examples 2, 28, and 29 and Comparative Examples 16 and 17 were subjected to a TG measurement using EXSTAR 6000 (Seiko Instruments Inc.) (Examples 30 and 31, and Comparative Examples 18 and 19). Z-DOL was also subjected to the TG measurement (Comparative Example 20). Weight loss was measured while purging air in a temperature range of 30° C. to 600° C. at a heating rate of 10° C./min.
The TG/DTA measurement was performed in a temperature range of 30° C. to 600° C. at a heating rate of 10° C./min while introducing air at a flow rate of 200 mL/min using EXSTAR 6000 (manufactured by Seiko Instruments Inc.). As a gas chromatography mass spectrometer, 6890/5975 MSD (manufactured by Agilent Technologies, Inc.) was used. The following measurement conditions were used: column: DB-1 (15 m, diameter: 0.25 mm, membrane thickness: 0.1 μm); injection temperature: 280° C.; column temperature: initial temperature of 40° C., hold for 5 min, heated to 340° C. at the heating rate of 20° C./min, and hold at the same temperature; mass spectrometric unit: 5975MSD; MS detection mode: EI^+; quadrupole temperature: 150° C.; ion source temperature: 300° C.; mass scanning range: m/z 33-700; and calibration: PFTBA.

[2] = acid dissociation constant (pKa) in acetonitrile; type: physicochemical
From the text: […]. Note that, the pKa values in acetonitrile is described in, for example, Blackwell Scientific Publications, Oxford, 1990, and J. Org. Chem. 2011, Vol. 76, pp. 391-395.
Although the acid dissociation constant in acetonitrile is not described herein because it is described in J. Org. Chem. 1998, 63, p. 7868 or J. Org. Chem. 1997, 62, p. 8479, it can be obtained by dissolving an acid in acetonitrile, titrating the resultant with a base, and measuring a spectrum by means of a UV-vis spectrometer.

[3] = cited from earlier work

Compound	pKa of Bronsted acid ([1]; in water)	10% weight loss temperature (TG/DTA thermal analysis)	ΔpKa [2]	nature of the weight loss in TG/DTA (TG/DTA thermal analysis)	further results
CCCCCCCCCCCCCCCCCCN.O=C(O)C(F)(F)F [Comparative ionic liquid 1, reference compound]	0.5				
CCCCCCCCCCCCCCCCCCN.O=C(O)C(F)(F)C(F)(F)C(F)(F)C(F)(F)C(F)(F)C(F)(F)C(F)(F)F [Comparative ionic liquid 2, reference compound]					pKa of Bronsted acid [1]: 2.5
CCCCCCCCCCCCCCCCCC(=O)O.CCCCCCCCCCCCCCCCCCN [Comparative ionic liquid 3, reference compound]	5.0				
CCCCCCCCCCCCCCCCCCN.O=C(O)C(F)(F)C(F)(F)C(F)(F)C(F)(F)C(F)(F)C(F)(F)C(F)(F)F [Comparative ionic liquid 6, reference compound]		205 °C			pKa of Bronsted base ([1]; in water): 10.7; pKa of Bronsted acid ([1]; in water, listed as Comparative Example 16): 3.8
CCCCCCCCCCCCCCCCCCN.OCC(F)(F)C(F)(F)C(F)(F)C(F)(F)C(F)(F)C(F)(F)C(F)(F)F [Comparative ionic liquid 7, reference compound]	7-9	62 °C			pKa of Bronsted base ([1]; in water): 10.7; ΔpKa (pKa value of Bronsted base minus pKa value of Bronsted acid) ([1]; in water): ≤ 4; ΔpKa (pKa value of Bronsted base minus pKa value of Bronsted acid) ([1]; in water, listed as Comparative Example 17): 1.7-3.7
C1CCC2=NCCCN2CC1.O=S(=O)(O)C(F)(F)C(F)(F)C(F)(F)C(F)(F)C(F)(F)C(F)(F)C(F)(F)C(F)(F)F [Comparative ionic liquid 8, DBU pentadecafluorooctane sulfonic acid salt, reference compound]		393 °C	23.6	exothermic	Exothermic peak temperature in DTA measurement (TG/DTA thermal analysis): 432 °C
C1CN=C2NCCCN2C1.O=S(=O)(O)C(F)(F)C(F)(F)C(F)(F)C(F)(F)C(F)(F)C(F)(F)C(F)(F)F [Comparative ionic liquid 9, TBD pentadecafluoro sulfonic acid salt, reference compound]		371 °C	24.8	exothermic	Exothermic peak temperature in DTA measurement (TG/DTA thermal analysis): 425 °C
C1CCC2=NCCCN2CC1 [DBU, 1,8-diazabicyclo(5,4,0)-undecene-7]					pKa value ([3]; in water, cyclic amidine base): 12.5
CCCCCCCCCCCCCCCCCCN.O=S(=O)(NS(=O)(=O)C(F)(F)F)C(F)(F)F [Ionic liquid 1, n-octadecylamine-bistrifluoromethane sulfonylimide salt]		329 °C	17.9	exothermic	
CCCCCCCCCCCCCCCCCCN.O=S(=O)(O)O [Ionic liquid 3]	−3				
CCCCCCCCCCCCCCCCCCN.CS(=O)(=O)O [Ionic liquid 4]	−2				
CCCCCCCCCCCCCCCCCCN.O=S(=O)(O)C(F)(F)C(F)(F)C(F)(F)C(F)(F)C(F)(F)C(F)(F)C(F)(F)C(F)(F)F [Ionic liquid 10]	−3.3	327 °C			pKa of Bronsted base ([1]; in water): 10.7
CCCCCCCCCCCCCCCC1CCCCN2CCCN=C12.O=S(=O)(O)C(F)(F)C(F)(F)C(F)(F)C(F)(F)C(F)(F)C(F)(F)C(F)(F)C(F)(F)F [Ionic liquid 11]	−3.3	372 °C			pKa of Bronsted base ([1]; in water): 12.5; increase of 10% weight loss temperature (TG/DTA thermal analysis; DBU derivative instead of stearylamine as Bronsted base): 45 °C; 10% weight loss temperature higher than that of Z-DOL (TG/DTA thermal analysis; difference to Z-DOL): ≥ 200 °C
CCCCCCCCCCCCCCCCCCN.O=S(=O)(NS(=O)(=O)C(F)(F)C(F)(F)C(F)(F)C(F)(F)F)C(F)(F)C(F)(F)C(F)(F)C(F)(F)F [Ionic liquid 13, n-octadecylamine-bisnonafluorobutane sulfonylimide salt]		331 °C	18.3	exothermic	
CCCCCCCCCCCCCCCCCCN.O=S1(=O)NS(=O)(=O)C(F)(F)C(F)(F)C1(F)F [Ionic liquid 14, n-octadecylamine-cyclo-hexafluoropropane-1,3-bis(sulfonyl)imide salt]		347 °C	19.2	exothermic	Exothermic peak temperature in DTA measurement (TG/DTA thermal analysis): 417 °C
CCCCCCCCCCCCCCCCCCC1CCCCN2CCCN=C12.O=S(=O)(O)C(F)(F)C(F)(F)C(F)(F)C(F)(F)C(F)(F)C(F)(F)C(F)(F)C(F)(F)F (stereo not drawn) [Ionic liquid 15, 6-n-octadecyl-1,8-diazabicyclo[5.4.0]-7-undecene (C18-DBU) pentadecafluorooctane sulfonic acid salt]		384 °C	23.6	exothermic	
CCCCCCCCCCCCCCCCCCC1CCCCN2CCCN=C12.O=S1(=O)NS(=O)(=O)C(F)(F)C(F)(F)C1(F)F (stereo not drawn) [Ionic liquid 16, C18-DBU cyclo-hexafluoropropane-1,3-bis(sulfonyl)imide salt]		386 °C	25.2	exothermic	Exothermic peak temperature in DTA measurement (TG/DTA thermal analysis): 474 °C
CCCCCCCCCCCCCCCCCCN1CCCN2CCCN=C12.O=S(=O)(O)C(F)(F)C(F)(F)C(F)(F)C(F)(F)C(F)(F)C(F)(F)C(F)(F)C(F)(F)F [Ionic liquid 17, 7-n-octadecyl-1,5,7-triazabicyclo[4.4.0]-5-decene (C18-TBD) pentadecafluorooctane sulfonic acid salt]		381 °C	24.8	exothermic	
CCCCCCCCCCCCCCCCCCN1CCCN2CCCN=C12.O=S1(=O)NS(=O)(=O)C(F)(F)C(F)(F)C1(F)F [Ionic liquid 18, C18-TBD cyclo-hexafluoropropane-1,3-bis(sulfonyl)imide salt]		380 °C	26.4	exothermic	
c1c[nH]cn1 [imidazole]					pKa value ([3]; solvent not stated): 14
CCCCCCCCCCCCCCCCCCN [octadecylamine]					pKa ([1]; water): 10.7
O=C(O)C(F)(F)C(F)(F)C(F)(F)C(F)(F)C(F)(F)C(F)(F)C(F)(F)F [perfluorooctanoic acid]					pKa [1]: 2.5
CCCCCCCCCCCCCCCCCC(=O)O [stearic acid]					pKa ([1]; water): 5

— patent US10047091B2, “Ionic liquid, lubricating agent, and magnetic recording medium” (Dexerials Corporation, priority 2012, dated 2018)
